Test results as given in the supplement of paper PMC11061612.

Assays:
Experiment in all cases: combination Emax (second highest fraction inhibited in the dose matrix, 72 h); higher = more inhibition; extreme values may be limits of the assay
NCI-H2722 (Mesothelioma) = test system: NCI-H2722 (Mesothelioma)
Summary of the method: (§1)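 Bliss excess equals the observed combination effect minus the expected value EA + EB − EA·EB, where EA and EB are the effects of each agent alone. Combination Emax is the second-highest inhibition within the matrix. Inhibition was scaled from CellTiter-Glo 2.0 luminescence, with 0 set by vehicle wells and 1 by blank wells, after 72 hours of two-drug dosing of cells plated in 1536-well plates.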

[1] = test system: BE-13 (T-Lymphoblastic Leukemia)
Summary of the method: as §1

[2] = test system: Hs-746T (Gastric Carcinoma)
Summary of the method: as §1

[3] = test system: SNU-449 (Hepatocellular Carcinoma)
Summary of the method: as §1

[4] = test system: Detroit562 (Head and Neck Carcinoma)
Summary of the method: as §1

[5] = test system: HuH-7 (Hepatocellular Carcinoma)
Summary of the method: as §1

[6] = test system: HH (T-Cell Non-Hodgkin's Lymphoma)
Summary of the method: as §1

[7] = test system: HeLa (Cervical Carcinoma)
Summary of the method: as §1

[8] = test system: SAS (Oral Cavity Carcinoma)
Summary of the method: as §1

[9] = test system: WSU-NHL (B-Cell Non-Hodgkin's Lymphoma)
Summary of the method: as §1

GAMG (Glioblastoma) = test system: GAMG (Glioblastoma)
Summary of the method: as §1

[10] = test system: NCI-H524 (Small Cell Lung Carcinoma)
Summary of the method: as §1

[11] = test system: HuCCT1 (Biliary Tract Carcinoma)
Summary of the method: as §1

CAL-72 (Osteosarcoma) = test system: CAL-72 (Osteosarcoma)
Summary of the method: as §1

[12] = test system: TGBC1TKB (Biliary Tract Carcinoma)
Summary of the method: as §1

[13] = test system: LCLC-97TM1 (Non-Small Cell Lung Carcinoma)
Summary of the method: as §1

[14] = test system: OV-56 (Ovarian Carcinoma)
Summary of the method: as §1

LOXIMVI (Melanoma) = test system: LOXIMVI (Melanoma)
Summary of the method: as §1

A673 (Ewing's Sarcoma) = test system: A673 (Ewing's Sarcoma)
Summary of the method: as §1

[15] = test system: OVCAR-5 (Ovarian Carcinoma)
Summary of the method: as §1

Row | SMILES | combination Emax (NCI-H2722 (Mesothelioma)) | combination Emax [1] | combination Emax [2] | combination Emax [3] | combination Emax [4] | combination Emax [5] | combination Emax [6] | combination Emax [7] | combination Emax [8] | combination Emax [9] | combination Emax (GAMG (Glioblastoma)) | combination Emax [10] | combination Emax [11] | combination Emax (CAL-72 (Osteosarcoma)) | combination Emax [12] | combination Emax [13] | combination Emax [14] | combination Emax (LOXIMVI (Melanoma)) | combination Emax (A673 (Ewing's Sarcoma)) | combination Emax [15]
1 | Cc1cc2ncnn2cc1Nc1ncc2c(n1)n(C1CCOCC1)c(=O)n2C [AZD7648] + C=CCn1c(=O)c2cnc(Nc3ccc(N4CCN(C)CC4)cc3)nc2n1-c1cccc(C(C)(C)O)n1 [AZD1775] (first compound max 10 µM, partner max 1 µM) | 0.327 | 1 | 0.652 | 0.333 | 0.704 | 0.252 | 0.431 | 0.636 | 0.734 | 1 | 0.706 | 0.808 | 0.692 | 0.649 | 0.335 | 0.781 | 0.307 | 0.668 | 0.594 | 0.412
2 | Cc1cc2ncnn2cc1Nc1ncc2c(n1)n(C1CCOCC1)c(=O)n2C [AZD7648] + CCN(CCO)CCCOc1ccc2c(Nc3cc(CC(=O)Nc4cccc(F)c4)[nH]n3)ncnc2c1 [AZD2811] (first compound max 10 µM, 7x7, partner max 1 µM) | 0.291 | 0.764 | 0.386 | 0.318 | 0.829 | 0.23 | 0.245 | 0.285 | 0.255 | 0.976 | 0.514 | 0.985 | 0.406 | 0.436 | 0.313 | 0.44 | 0.276 | 0.449 | 0.765 | 0.262
3 | Cc1cc2ncnn2cc1Nc1ncc2c(n1)n(C1CCOCC1)c(=O)n2C [AZD7648] + CN(C)CCCOc1ccc(-c2ccc3ncc4c(c3c2)n(C2CCOCC2)c(=O)n4C)cn1 [AZD0156] (first compound max 10 µM, 7x7, partner max 1 µM) | 0.209 | 0.323 | 0.36 | 0.282 | 0.419 | 0.201 | 0.285 | 0.204 | 0.307 | 0.498 | 0.402 | 0.312 | 0.389 | 0.399 | 0.398 | 0.159 | 0.224 | 0.478 | 0.336 | 0.287
4 | Cc1cc2ncnn2cc1Nc1ncc2c(n1)n(C1CCOCC1)c(=O)n2C [AZD7648] + C[C@@H]1COCCN1C2=NC(=NC(=C2)C3(CC3)[S@](=N)(=O)C)C4=C5C=CNC5=NC=C4 [AZD6738] (first compound max 10 µM, 7x7, partner max 10 µM) | 0.347 | 0.757 | 0.677 | 0.279 | 0.848 | 0.215 | 0.337 | 0.575 | 0.856 | 1 | 0.681 | 0.759 | 0.735 | 0.788 | 0.526 | 0.84 | 0.734 | 0.768 | 0.809 | 0.757
5 | Cc1cc2ncnn2cc1Nc1ncc2c(n1)n(C1CCOCC1)c(=O)n2C [AZD7648] + O=C(c1cc(Cc2n[nH]c(=O)c3ccccc23)ccc1F)N1CCN(C(=O)C2CC2)CC1 [Olaparib] (first compound max 10 µM, 7x7, partner max 10 µM) | 0.225 | 0.255 | 0.337 | 0.0839 | 0.376 | 0.198 | 0.22 | 0.22 | 0.213 | 0.71 | 0.11 | 0.365 | 0.185 | 0.322 | 0.201 | 0.199 | 0.103 | 0.479 | 0.585 | 0.231
6 | Cc1nc(Nc2ncc(C(=O)Nc3c(C)cccc3Cl)s2)cc(N2CCN(CCO)CC2)n1 [Dasatinib] + CC(=O)Nc1cccc(-n2c(=O)n(C3CC3)c(=O)c3c(Nc4ccc(I)cc4F)n(C)c(=O)c(C)c32)c1 [Trametinib] (first compound max 2 µM, 7x7, partner max 1 µM) | 0.487 | 0.607 | 0.746 | 0.691 | 0.862 | 0.662 | 0.216 | 0.241 | 0.713 | 0.962 | 0.476 | 0.0954 | 0.772 | 0.545 | 0.715 | 0.904 | 0.446 | 1 | 0.237 | 0.905
7 | COc1cc2ncnc(Nc3ccc(F)c(Cl)c3)c2cc1OCCCN1CCOCC1 [Gefitinib] + CC(C)n1c(=O)n(C)c2cnc3cc(F)c(-c4ccc(OCCCN5CCCCC5)nc4)cc3c21 [AZD1390] (first compound max 10 µM, 7x7, partner max 0.3 µM) | 0.0368 | 0.266 | 0.0968 | 0.249 | 0.471 | 0.114 | 0.221 | 0.0627 | 0.401 | 0.337 | 0.106 | 0.139 | 0.389 | 0.109 | 0.263 | 0.0902 | 0.0799 | 0.32 | 0.162 | 0.203
8 | COc1cc2c(cc1OCCCCCOc1cc3c(cc1OC)C(=O)N1C=C(C)C[C@H]1C=N3)N=C[C@@H]1CC(C)=CN1C2=O [SG3199] + O=C(c1cc(Cc2n[nH]c(=O)c3ccccc23)ccc1F)N1CCN(C(=O)C2CC2)CC1 [Olaparib] (first compound max 0.001 µM, 7x7, partner max 10 µM) | 0.134 | 0.283 | 0.292 | 0.0573 | 0.175 | 0.12 | 0 | 0.159 | 0.164 | 0.763 | 0.104 | 0.196 | 0.0094 | 0.23 | 0.0857 | 0.12 | 0.131 | 0.187 | 0.563 | 0.0819
9 | C[C@@H](c1ccc2nccn2c1)n1nnc2ncc(-c3cnn(C)c3)nc21 [Savolitinib] + CC1(C)CCC(CN2CCN(c3ccc(C(=O)NS(=O)(=O)c4ccc(NCC5CCOCC5)c([N+](=O)[O-])c4)c(Oc4cnc5[nH]ccc5c4)c3)CC2)=C(c2ccc(Cl)cc2)C1 [Venetoclax] (first compound max 1 µM, 7x7, partner max 1 µM) | 0.159 | 0.196 | 0.664 | 0.157 | 0.0649 | 0.15 | 0.134 | 0.147 | 0.138 | 0.315 | 0.202 | 0.13 | 0.107 | 0.181 | 0.144 | 0.0631 | 0.158 | 0.232 | 0.309 | 0.0951
10 | C[C@@H](c1ccc2nccn2c1)n1nnc2ncc(-c3cnn(C)c3)nc21 [Savolitinib] + Cc1c2c(nn1C)CSCc1cc(n(C)n1)CSc1cc(c3ccccc3c1)OCCCc1c(C(=O)O)n(C)c3c-2c(Cl)ccc13 [AZD5991] (first compound max 1 µM, 7x7, partner max 1 µM) | 0.2 | 0.383 | 0.652 | 0.154 | 0.26 | 0.207 | 0.879 | 0.362 | 0.151 | 0.743 | 0.167 | 0.351 | 0.117 | 0.189 | 0.159 | 0.147 | 0.151 | 0.228 | 0.302 | 0.137
